Consider five compounds from patent publication US20250101019A1 (Insilico Medicine IP Limited, priority 2022, published 2025).

Some results are limits rather than exact numbers.

Experiment [1] concerns the target T1, ENPP1 (Homo sapiens (Human), UniProt P22413). Briefly: ATP-Glo enzymatic assay (ATP substrate, AMP-Glo readout). The following applies: 25° C. for 60 min, 50 mM Tris pH 8.8. The experiment is classed as biochemical.
Experiment [2] deals with T1, ENPP1. Briefly: cGAMP-Glo enzymatic assay (2′3′-cGAMP substrate, AMP-Glo readout). The conditions noted are these: substrate 2′3′-cGAMP; 25° C. for 60 min; 50 mM Tris pH 8.8. In kind it is biochemical. Put shortly: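 Human ENPP1 incubated with compound (11-point, 3-fold series) and either ATP or 2′3′-cGAMP substrate for 60 min at 25 °C in 50 mM Tris pH 8.8, 250 mM NaCl, 0.1% BSA. AMP produced detected by AMP-Glo then kinase detection reagent, 1 h each at 25 °C, read as luminescence.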

T1 sequence (P22413 whole entry, species assumed): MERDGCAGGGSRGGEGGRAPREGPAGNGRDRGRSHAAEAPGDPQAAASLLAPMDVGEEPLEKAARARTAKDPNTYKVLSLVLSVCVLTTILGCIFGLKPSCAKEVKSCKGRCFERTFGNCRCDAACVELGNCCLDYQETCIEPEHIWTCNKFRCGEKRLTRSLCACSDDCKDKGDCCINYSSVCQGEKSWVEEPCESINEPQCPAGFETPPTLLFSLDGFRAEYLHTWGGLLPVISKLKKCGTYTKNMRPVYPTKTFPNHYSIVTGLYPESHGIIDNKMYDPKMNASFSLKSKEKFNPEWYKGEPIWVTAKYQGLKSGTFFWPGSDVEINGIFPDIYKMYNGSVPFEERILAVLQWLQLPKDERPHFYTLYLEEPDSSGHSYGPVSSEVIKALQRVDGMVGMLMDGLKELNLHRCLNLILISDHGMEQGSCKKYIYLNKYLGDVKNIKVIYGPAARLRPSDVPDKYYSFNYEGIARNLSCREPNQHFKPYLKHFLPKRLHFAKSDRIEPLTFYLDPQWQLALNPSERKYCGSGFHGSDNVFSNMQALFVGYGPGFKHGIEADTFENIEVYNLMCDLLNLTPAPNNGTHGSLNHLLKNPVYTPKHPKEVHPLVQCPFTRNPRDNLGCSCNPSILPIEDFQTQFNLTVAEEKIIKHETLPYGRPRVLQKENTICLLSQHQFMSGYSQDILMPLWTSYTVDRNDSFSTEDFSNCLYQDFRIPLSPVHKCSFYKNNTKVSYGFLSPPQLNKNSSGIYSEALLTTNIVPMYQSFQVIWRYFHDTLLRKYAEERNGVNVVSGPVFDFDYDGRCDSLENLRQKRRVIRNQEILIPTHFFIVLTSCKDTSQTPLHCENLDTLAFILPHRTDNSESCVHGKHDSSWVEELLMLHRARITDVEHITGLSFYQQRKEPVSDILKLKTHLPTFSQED

As a reminder, the IC50 is the midpoint of a concentration-inhibition curve. High values mean weaker potency in that assay, low ones greater potency in that assay. `COc1ncc2c(c1-c1ccccc1)n(Cc1ccc(S(N)(=O)=O)cn1)c(=O)n2C` [Example 82, 6-((6-methoxy-3-methyl-2-oxo-7-phenyl-2,3-dihydro-1H-imidazo[4,5-c]pyridin-1-yl)methyl)pyridine-3-sulfonamide]: the IC50 in experiment [1] and in experiment [2] was under 1 nM in each case.
`Cc1ncc2nc(C3CC3)n(Cc3ccc(S(N)(=O)=O)nc3)c2c1-c1ccccc1` [Example 54, 5-((2-cyclopropyl-6-methyl-7-phenyl-1H-imidazo[4,5-c]pyridin-1-yl)methyl)pyridine-2-sulfonamide]: the IC50 in experiment [1] and in experiment [2] was under 1 nM throughout.
In the case of `Cc1ncc(-c2ccccc2)c2c1nc(C)n2Cc1ccc(S(N)(=O)=O)cc1` [Example 32, 4-((2,4-dimethyl-7-phenyl-1H-imidazo[4,5-c]pyridin-1-yl)methyl)benzene sulfonamide], the IC50 in experiment [1] and in experiment [2] was under 1 nM throughout.
For the compound `Cc1ncc2c(c1-c1ccccc1)n(Cc1ccc(S(N)(=O)=O)cn1)c(=O)n2C` [Example 81, 6-((3,6-dimethyl-2-oxo-7-phenyl-2,3-dihydro-1H-imidazo[4,5-c]pyridin-1-yl)methyl)pyridine-3-sulfonamide], the IC50 in experiment [1] and in experiment [2] was under 1 nM each time.
Consider `[2H]C([2H])([2H])c1nc2cnc(C)c(-c3ccccc3)c2n1Cc1c(F)cc(S(N)(=O)=O)cc1F` [Example 42, 3,5-difluoro-4-((6-methyl-2-(methyl-d3)-7-phenyl-1H-imidazo[4,5-c]pyridin-1-yl)methyl)benzenesulfonamide], for which the half-inhibitory concentration (IC50) in experiment [1] and in experiment [2] was under 1 nM throughout.
